Consider 63 compounds from a melting point compilation (Tetko et al.; mined from patent text by program, amines drawn as free bases though some values may be those of a salt).

Where only a bound is given, the exact number is not on record here.

What is called melting point is the temperature of the solid-liquid transition. Turning to `Cc1nc(COc2ccc(C[C@@H](C)[C@@H](C)Cc3ccc(OCc4csc(C)n4)c(OCc4csc(C)n4)c3)cc2OCc2csc(C)n2)cs1`, the melting point lay within 85 to 87 °C.

Consider `Fc1ccccc1N1CCN(c2ccc(Cl)nn2)CC1`, for which the melting point was 148 °C.

In the case of `COc1ccc(-c2cc(C(=O)O)c(=O)n(CC3CCCC3)n2)cc1F`, the melting point fell in the range of 159 to 161 °C.

In turn, `CN(C)C(=O)Oc1ccc(CO)cc1` yielded a melting point of 76 °C.

Consider `Cc1c(-c2cnccn2)ssc1=S`, for which the melting point was found to be 164 °C.

`O=S(=O)(Cl)c1ccc2c(S(=O)(=O)Cl)cc(S(=O)(=O)Cl)cc2c1` yielded a melting point of 195 to 197 °C.

As to `Cc1ccc(-c2cccc(C(=O)O)n2)cc1C(=O)NCC12CC3CC(CC(C3)C1)C2`, the melting point was 227 °C.

For the compound `CCCCCCc1ccc(C=CC(=O)c2ccc(OCC=C(C)C)cc2OCC(=O)O)cc1`, the melting point was 106 to 108 °C.

In the case of `O=c1[nH]ncc2c1c(O)nc1ccc(Cl)c(Cl)c12`, the melting point was found to be 270 °C.

Compound `CCCc1c(OCCCOc2ccc(CC(=O)O)cc2Br)ccc(C(C)=O)c1O` gave a melting point of 111 to 112 °C.

For `CC(O)(c1cccnc1)C1CCN(C[C@@]23C[C@@H](c4ccccc42)c2ccc(Cl)cc23)CC1` (single isomer, unassigned), the melting point lay in the range of 87 to 93 °C.

In turn, `OC1C(COCC(F)(F)F)OC(n2cnc3c(Nc4ccc(F)cc4)ncnc32)C1O` (stereo not drawn) gave a melting point of 214 to 215 °C.

`COc1ccc(Cl)cc1C(=O)NC1Cc2cc(S(N)(=O)=O)c(OC)cc2OC1(C)C` (stereo not drawn) came in with a melting point of 228 °C.

For the compound `COCc1c(C(=O)O)ncc2c1c1c(Oc3ccc([N+](=O)[O-])cc3)cccc1n2CC(=O)N(C)CCc1ccccc1`, the melting point was 231 to 232 °C.

Take `O=C(O)C1(CCCCCCCCCCCCC2(C(=O)NCCO)CC2)CC1`: the melting point is 81.1 to 83.8 °C.

With `CCN(CC)CC/C=C/c1ccc2c(Nc3ccc(Sc4nccn4C)c(Cl)c3)c(C#N)cnc2c1`, the melting point was in the range of 200 to 210 °C.

Take `O=C1NC(=O)C(CC#Cc2ccc(Cl)cc2)(Sc2nc3cc(Cl)ccc3s2)S1` (stereo not drawn): the melting point was in the range of 187 to 188 °C.

In turn, `CC(C)(C)CC(C)(C)n1scc(Br)c1=O` gave a melting point of 133 to 142 °C.

Take `CN1C(=O)CC[C@]2(C)c3ccc(-c4ccc([N+](=O)[O-])cn4)cc3CC[C@@H]12`: the melting point was in the range of 70 to 80 °C.

On to `CCNc1ccc(-n2c(C(F)(F)F)nn(C)c2=S)c(Cl)c1`, for which the melting point is 87 to 90 °C.

Regarding `COc1cc2ccc(-c3ccccc3[N+](=O)[O-])cc2cc1OC`, the melting point lay in the range of 244 to 246 °C.

The compound `CCCCCc1c(-c2ccc(OC(F)F)c(OC3CC3)c2)[nH]c2cn[nH]c(=O)c12` displayed a melting point of 191 to 193 °C.

As to `CNc1nccc(-c2c(-c3ccc(F)cc3)ccn2C2CCNCC2)n1`, the melting point fell in the range of 189 to 191 °C.

Consider `COc1cccc(-c2cc(C)cc3c2OC(CN)C3)c1OC` (stereo not drawn), for which the melting point lay within 97 to 99 °C.

With `CC(=O)NC1(c2ccccc2)CC1`, the melting point fell in the range of 94 to 95 °C.

`CC(C)OP(=O)(OC(C)C)c1nc(N)nc(P(=O)(OC(C)C)OC(C)C)n1` showed a melting point of 123 to 124 °C.

Take `CC(=O)OC1CSC(Oc2c(C)ccnc2Cl)C(OC(C)=O)C1OC(C)=O` (stereo not drawn): the melting point was found to be 144 °C.

Consider `CCOC(=O)/C=C/c1cnc(-c2ccc(O)c(C34CC5CC(CC(C5)C3)C4)c2)nc1`, for which the melting point was in the range of 226 to 228 °C.

Turning to `CCc1nc2c(N)nc3ccccc3c2n1CCOCCS(C)(=O)=O`, the melting point is 160 to 163 °C.

Regarding `CSCCOc1cc(N)c(Cl)cc1C(=O)O`, the melting point fell in the range of 138 to 140 °C.

For the compound `CCCNC(=O)NC1CCCCC1`, the melting point lay within 108 to 109 °C.

In turn, `CCc1n[nH]c(CC)c1CCCCCCOc1ccc(Cl)cc1` came in with a melting point of 130 to 132 °C.

`CC1N(C)C=C([N+](=O)[O-])N1CCOC(=O)Nc1cccc(C(N)=O)c1` (stereo not drawn) displayed a melting point of 207 °C.

Compound `Cc1c(C)c2c(c(C)c1O)SC(C)(C)O2` registered a melting point of 62 to 64.5 °C.

In turn, `CCCCN1C(=O)CN(c2ccccc2)C1=O` had a melting point of 74 °C.

The compound `COc1ccc(-c2cc3cc(F)c(F)cc3[nH]2)cc1NS(=O)(=O)c1cccc(N)c1` showed a melting point of 235 to 238 °C.

`C#CCN(C(C)=O)c1cccc(-c2ccc3nnc(C)n3n2)c1` gave a melting point of 195 to 198 °C.

In the case of `COc1cc(-c2csc(Br)c2Br)cc2oc(=O)c(C)c(C)c12`, the melting point was in the range of 194 to 196 °C.

The compound `O=C(O)Cc1cccc2c(=O)cc(-c3c(F)c(F)c(F)c(F)c3F)oc12` showed a melting point of 156 to 160 °C.

Compound `Cn1c(=O)n(Cc2ccccc2)c2cc(Cn3ccnc3)ccc21` yielded a melting point of 129 °C.

Turning to `CC(Oc1ccccc1[N+](=O)[O-])c1nnc(N)s1` (stereo not drawn), the melting point lay in the range of 137 to 142 °C.

The compound `CCOC(=O)c1cc(=O)c2c(OCC(O)COc3cccc4occc(=O)c34)cccc2o1` (stereo not drawn) gave a melting point of 155 to 159 °C.

Consider `Cc1cc(Cl)n2nc(S(=O)(=O)Nc3c(Cl)cccc3Cl)nc2c1`, for which the melting point lay in the range of 257 to 258 °C.

The compound `CCOCCCn1cnc(-c2ccc(F)cc2)c1-c1ccncc1` registered a melting point of 85 to 86 °C.

Regarding `CCCc1c2c(nn1-c1ccccc1)c(=O)[nH]c1ccccc12`, the melting point was more than 300 °C.

`CCC1(CCCCCBr)C(=O)Nc2cc(F)ccc21` (stereo not drawn) returned a melting point of 95 to 96 °C.

Consider `FC(F)(F)c1ccc(-c2nc(Br)cc(Br)n2)cc1`, for which the melting point amounted to 87 °C.

`CC(C)CCC(O)C(C(=O)C(Cc1c[nH]cn1)N(C)C(=O)C(Cc1ccccc1)OC(=O)N(C)CCN(C)C(=O)C(C)C)C(N)C1CCCCC1` (stereo not drawn) displayed a melting point of 68 to 72 °C.

Regarding `CCC(=O)C1(O)CC=C2CC3C4C=CC(O)C5OC1=C2C45CCN3C` (stereo not drawn), the melting point was in the range of 85 to 86 °C.

Consider `CCCCCc1ccc(OC(=O)N2CCC(OC(=O)NCCCCCCOC(=O)N3CCC4(CCCC4)CC3)CC2)cc1`, for which the melting point is 100 to 102 °C.

`COc1cc2c(cc1OC)OCCC(C(=O)O)=C2` showed a melting point of 209 to 210 °C.

In turn, `c1cc(-c2cncnc2)cc(-n2cnc3cc(-n4cccc4)ccc32)c1` came in with a melting point of 197 to 198 °C.

`CCC(C#N)Oc1cccc([N+](=O)[O-])c1Cl` (stereo not drawn) returned a melting point of 69 to 71 °C.

`CC(C)=CCc1cc(-c2oc3c(CC=C(C)C)c(O)cc(O)c3c(=O)c2O)ccc1O` came in with a melting point of 145 to 146 °C.

`CCSc1cc(C)nc(SCC)c1NC(=O)CSc1nc2ccccc2s1` returned a melting point of 119 to 120 °C.

Regarding `CNC(=O)c1c(-c2ccccc2)noc1CC(O)c1ccc(C)cc1` (stereo not drawn), the melting point lay in the range of 148 to 150 °C.

Compound `CC(=O)Nc1ccc2c(c1)CCCCC2=O` gave a melting point of 105 °C.

`O=c1[nH]c(=S)n2c3c1cnn3C(c1cccc(F)c1)=CC2` came in with a melting point of 298 to 300 °C.

Turning to `COc1ccc(-c2cccc(OCc3ccccc3)c2)cc1`, the melting point fell in the range of 78.5 to 81 °C.

`CCOC(=O)c1cn(-c2nc(C)ns2)c2cc(F)c(F)cc2c1=O` yielded a melting point of 157 to 159 °C.

For `Cc1ccc(C(Cn2ccnc2)C(=O)c2ccc(Cl)cc2Cl)cc1` (stereo not drawn), the melting point lay within 92 to 96 °C.

Take `CC(C)(C)C1=CC(C=O)(C(C)(C)C)NN1` (stereo not drawn): the melting point lay in the range of 216 to 219 °C.

Regarding `O=C(NC(=O)N1C(=O)Cc2ccccc21)c1ccccc1`, the melting point worked out at 184 °C.
